In patent US20100183530A1, “Cosmetic compositions comprising 4-carboxy-2-pyrrolidinone esters and triazine lipophilic UV-screening agents” (L'OREAL, priority 2008, published 2010):

Assay: Solubility of lipophilic triazine screening agents in oils (prior art solvents and solvents of the invention)
Format: physicochemical
Details: weight/weight, solution left at laboratory temperature for 1 month, no crystal or oily deposit
[1] = oil: Caprylic/capric acid triglycerides
[2] = oil: Compound (m) of the invention
[3] = oil: Isopropyl N-lauroylsarcosinate

solubility of the screening agent in the oil [2] | solubility of the screening agent in the oil [3] | solubility of the screening agent in the oil (oil: Compound (v) of the invention) | Compound | solubility of the screening agent in the oil (oil: 2-Phenylethyl benzoate) | solubility of the screening agent in the oil (oil: C12-C15 alkyl benzoate) | solubility of the screening agent in the oil [1] | solubility of the screening agent in the oil (oil: Compound (I) of the invention) | solubility of the screening agent in the oil (oil: Compound (ii) of the invention) | solubility of the screening agent in the oil (oil: Compound (j) of the invention)
60% gel | 40% gel |  | CC(C)(C)COC(=O)C(=Cc1ccc(Nc2nc(Nc3ccc(C=C(C(=O)OCC(C)(C)C)C(=O)OCC(C)(C)C)cc3)nc(Nc3ccc(C=C(C(=O)OCC(C)(C)C)C(=O)OCC(C)(C)C)cc3)n2)cc1)C(=O)OCC(C)(C)C [Screening agent 1, Dineopentyl 2-[4-({4,6-bis[(4-{3-(neopentyloxy)-2-[(neopentyloxy)carbonyl]-3-oxoprop-1-enyl}phenyl)amino]-1,3,5-triazin-2-yl}amino)benzylidene]malonate] |  |  |  |  |  | 
60% gel | 40% gel |  | CC(C)(C)COC(=O)C(=Cc1ccc(Nc2nc(Nc3ccc(C=C(C(=O)OCC(C)(C)C)C(=O)OCC(C)(C)C)cc3)nc(Nc3ccc(C(=O)NC(C)(C)C)cc3)n2)cc1)C(=O)OCC(C)(C)C [Screening agent 4, Dineopentyl 2-[4-({4-({4-[(tert-butylamino)carbonyl]phenyl}amino)-6-[(4-{3-(neopentyloxy)-2-[(neopentyloxy)carbonyl]-3-oxoprop-1-enyl}phenyl)amino]-1,3,5-triazin-2-yl}amino)benzylidene]malonate] |  |  |  |  |  | 
18% | 10% | 20% | CCCCC(CC)COc1ccc(-c2nc(-c3ccc(OC)cc3)nc(-c3ccc(OCC(CC)CCCC)cc3O)n2)c(O)c1 (centres unmarked) [Screening agent 10, 5-[(2-Ethylhexyl)oxy]-2-[4-{4-[(2-ethylhexyl)oxy]-2-hydroxyphenyl}-6-(4-methoxyphenyl)-1,3,5-triazin-2-yl]phenol] |  |  |  |  |  | 
60% gel | 35% |  | 2,4-bis(isobutyl 4′-aminobenzalmalonate)-6-[(3-{1,3,3,3-tetramethyl-1-[(trimethylsilyl)oxy]disiloxanyl}propyl)amino]-1,3,5-triazine [Screening agent 2] |  | 8% | 6% |  |  | 

Compound | solubility of the screening agent in the oil [2] | solubility of the screening agent in the oil [3] | solubility of the screening agent in the oil (oil: Compound (v) of the invention) | solubility of the screening agent in the oil (oil: 2-Phenylethyl benzoate) | solubility of the screening agent in the oil (oil: C12-C15 alkyl benzoate) | solubility of the screening agent in the oil [1] | solubility of the screening agent in the oil (oil: Compound (I) of the invention) | solubility of the screening agent in the oil (oil: Compound (ii) of the invention) | solubility of the screening agent in the oil (oil: Compound (j) of the invention)
CCCCOC(=O)c1ccc(Nc2nc(NCCC[Si](C)(O[Si](C)(C)C)O[Si](C)(C)C)nc(Nc3ccc(C(=O)OCCCC)cc3)n2)cc1 [Screening agent 8, Butyl 4-({4-{[4-(butoxycarbonyl)phenyl]amino}-6-[(3-{1,3,3,3-tetramethyl-1-[(trimethylsilyl)oxy]disiloxanyl}propyl)amino]-1,3,5-triazin-2-yl}amino)benzoate] | 60% gel | 40% gel |  | 27% | 28% | 31% | 60% gel | 60% gel | 60% gel
CC(C)(C)CC(C)(C)NC(=O)c1ccc(Nc2nc(NCCC[Si](C)(O[Si](C)(C)C)O[Si](C)(C)C)nc(Nc3ccc(C(=O)NC(C)(C)CC(C)(C)C)cc3)n2)cc1 [Screening agent 5, N-(1,1,3,3-tetramethylbutyl)-4-({4-[(4-{[(1,1,3,3-tetramethylbutyl)amino]carbonyl}phenyl)amino]-6-[(3-{1,3,3,3-tetramethyl-1-[(trimethylsilyl)oxy]disiloxanyl}propyl)amino]-1,3,5-triazin-2-yl}amino)benzamide] | 60% gel | 40% gel |  |  |  |  |  |  | 
CCCCOC(=O)c1ccc(Nc2nc(Nc3ccc(C=C(C(=O)OCC(C)(C)C)C(=O)OCC(C)(C)C)cc3)nc(Nc3ccc(C=C(C(=O)OCC(C)(C)C)C(=O)OCC(C)(C)C)cc3)n2)cc1 [Screening agent 3, Dineopentyl 2-[4-({4-{[4-(butoxycarbonyl)phenyl]amino}-6-[(4-{3-(neopentyloxy)-2-[(neopentyloxy)carbonyl]-3-oxoprop-1-enyl}phenyl)amino]-1,3,5-triazin-2-yl}amino)benzylidene]malonate] | 60% gel | 40% gel |  |  |  |  |  |  | 
